pIC50: −log10 of the molar value.

Chain of human full-length BTK Kinase (Q06187 whole entry): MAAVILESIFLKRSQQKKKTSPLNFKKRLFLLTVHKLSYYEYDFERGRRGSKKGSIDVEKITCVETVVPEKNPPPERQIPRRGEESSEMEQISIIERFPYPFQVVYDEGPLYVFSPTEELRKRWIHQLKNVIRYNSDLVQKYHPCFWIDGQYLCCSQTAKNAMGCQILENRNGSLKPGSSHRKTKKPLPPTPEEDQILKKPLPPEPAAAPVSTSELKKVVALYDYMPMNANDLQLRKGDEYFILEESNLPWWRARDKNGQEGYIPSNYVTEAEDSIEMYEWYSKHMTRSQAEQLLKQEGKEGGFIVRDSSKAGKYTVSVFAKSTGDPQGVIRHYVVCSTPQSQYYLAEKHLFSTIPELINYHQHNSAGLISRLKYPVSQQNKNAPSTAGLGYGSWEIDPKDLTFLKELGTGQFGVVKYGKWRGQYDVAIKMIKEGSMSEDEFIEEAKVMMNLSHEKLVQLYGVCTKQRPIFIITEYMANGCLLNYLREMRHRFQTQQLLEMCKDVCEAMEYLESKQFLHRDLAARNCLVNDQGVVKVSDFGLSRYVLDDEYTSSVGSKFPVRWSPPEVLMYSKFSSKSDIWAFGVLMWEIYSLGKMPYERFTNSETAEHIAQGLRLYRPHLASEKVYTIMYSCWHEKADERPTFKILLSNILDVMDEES

In the assay the target is human full-length BTK Kinase (Homo sapiens (Human), UniProt Q06187). Put plainly: Human BTK LanthaScreen Assay (TR-FRET). Format: biochemical. To be noted: 50 μM ATP, FAM-Srctide peptide substrate, read-out: BTK Inhibition IC50. An excerpt:
Human BTK LanthaScreen Assay
In general terms: Time-resolved FRET reads energy transfer from a long-lived donor to a nearby acceptor.
As to `C[C@H]1CC[C@@H](n2nc(-c3ccc(Oc4ccc(F)cc4F)cc3)c(C(N)=O)c2N)CN1C#N` (relative stereo) [Example 121, 5-amino-1-[(3R*,6S*)-1-cyano-6-methylpiperidin-3-yl]-3-[4-(2,4-difluorophenoxy)phenyl]-1H-pyrazole-4-carboxamide], the pIC50 (usually the IC50 on a negative log10 scale, so that one unit is a factor of ten) is 8.00.
Take `N#CN1CCCC(n2nc(-c3ccc(Oc4ccccc4)cc3)c(C(N)=O)c2N)C1` (single isomer, unassigned) [Example 3]: the pIC50 is 8.48.
In the case of `N#CN1CCCC(n2nc(-c3ccc(Oc4ccc(Cl)cc4)cc3)c(C(N)=O)c2N)C1` (single isomer, unassigned) [Example 14] it was 7.90; in that of `Cc1ccc(Oc2ccc(-c3nn(C4CCCN(C#N)C4)c(N)c3C(N)=O)cc2)cc1C` (single isomer, unassigned) [Example 17], 9.40; in that of `Cc1ccc(Oc2ccc(-c3nn(C4CCCN(C#N)C4)c(N)c3C(N)=O)cc2)cc1C` (single isomer, unassigned) [Example 18], 8.52.
As to `N#CN1CCCC(n2nc(-c3ccc(Oc4ccc(F)cc4F)cc3)c(C(N)=O)c2N)C1` (single isomer, unassigned) [Example 26], the pIC50 was 7.76.
On to `Cc1cc(F)ccc1Oc1ccc(-c2nn(C3CCCN(C#N)C3)c(N)c2C(N)=O)cc1` (single isomer, unassigned) [Example 33], for which the pIC50 was 7.62.
As for `Cc1cc(F)ccc1Oc1ccc(-c2nn(C3CCCN(C#N)C3)c(N)c2C(N)=O)cc1` (single isomer, unassigned) [Example 34], the figure is 8.42.
In the case of `N#CN1CCCC(n2nc(-c3ccc(Oc4ccc(F)cc4Cl)cc3)c(C(N)=O)c2N)C1` (single isomer, unassigned) [Example 36] it was 7.60.
In the case of `N#CN1CCCC(n2nc(-c3ccc(Oc4ccc(F)cc4Cl)cc3)c(C(N)=O)c2N)C1` (single isomer, unassigned) [Example 37] it was 9.10; in that of `N#CN1CCC[C@@H](n2nc(-c3ccc(Cc4ccccc4F)cc3)c(C(N)=O)c2N)C1` (single isomer, unassigned) [Example 75], 9.09; in that of `N#CN1CCCC(n2nc(-c3ccc(Cc4cccc(F)c4)cc3)c(C(N)=O)c2N)C1` (single isomer, unassigned) [Example 78], 8.85.
In the case of `N#CN1CCCC(n2nc(-c3ccc(Cc4cccc(F)c4)cc3)c(C(N)=O)c2N)C1` (single isomer, unassigned) [Example 79], the negative logarithm of the IC50 (pIC50) is 7.51.
In the case of `N#CN1CCCC(n2nc(-c3ccc(Cc4ccc(F)cc4F)cc3)c(C(N)=O)c2N)C1` (single isomer, unassigned) [Example 81] it was 8.24.
In the case of `N#CN1CCCC(n2nc(-c3ccc(Cc4ccc(F)cc4F)cc3)c(C(N)=O)c2N)C1` (single isomer, unassigned) [Example 82] it was 6.90; in that of `N#CN1CCCC(n2nc(-c3ccc(Cc4ccc(F)c(F)c4)cc3)c(C(N)=O)c2N)C1` (single isomer, unassigned) [Example 84], 8.25.
In the case of `N#CN1CCCC(n2nc(-c3ccc(Cc4ccc(F)c(F)c4)cc3)c(C(N)=O)c2N)C1` (single isomer, unassigned) [Example 85] it was 6.67; in that of `N#CN1CCCC(n2nc(-c3cccc(Oc4ccccc4)c3)c(C(N)=O)c2N)C1` (single isomer, unassigned) [Example 90], 8.49; in that of `N#CN1CCCC(n2nc(-c3cccc(Oc4ccccc4)c3)c(C(N)=O)c2N)C1` (single isomer, unassigned) [Example 91], 6.81.
Take `N#CN1CCCC(n2nc(-c3ccc(Oc4ccc(Cl)cn4)cc3)c(C(N)=O)c2N)C1` (single isomer, unassigned) [Example 109]: the pIC50 is 6.89.
Take `Cc1ccc(Oc2ccc(-c3nn(C4CCCN(C#N)C4)c(N)c3C(N)=O)cc2)nc1` (single isomer, unassigned) [Example 113]: the pIC50 was 6.58.
In the case of `Cc1ccc(Oc2ccc(-c3nn(C4CCCN(C#N)C4)c(N)c3C(N)=O)cc2)nc1` (single isomer, unassigned) [Example 114] it was 8.00; in that of `N#CCN1CCCC(n2nc(-c3ccc(Oc4ccccc4)cc3)c(C(N)=O)c2N)C1` (stereo not shown) [Example 4, 5-amino-1-[1-(cyanomethyl)piperidin-3-yl]-3-(4-phenoxyphenyl)-1H-pyrazole-4-carboxamide], 7.46; in that of `N#CN1CCC(n2nc(-c3ccc(Oc4ccccc4)cc3)c(C(N)=O)c2N)CC1` [Example 5, 5-amino-1-(1-cyanopiperidin-4-yl)-3-(4-phenoxyphenyl)-1H-pyrazole-4-carboxamide], 7.49.
In the case of `N#CN1CCC(n2nc(-c3ccc(Oc4ccccc4)cc3)c(C(N)=O)c2N)C1` (stereo not shown) [Example 7, 5-amino-1-(1-cyanopyrrolidin-3-yl)-3-(4-phenoxyphenyl)-1H-pyrazole-4-carboxamide] it was 7.79; in that of `N#CCN1CCC(n2nc(-c3ccc(Oc4ccccc4)cc3)c(C(N)=O)c2N)C1` (stereo not shown) [Example 8, 5-amino-1-[1-(cyanomethyl)pyrrolidin-3-yl]-3-(4-phenoxyphenyl)-1H-pyrazole-4-carboxamide], 7.78.
As for `N#CN1CC(n2nc(-c3ccc(Oc4ccccc4)cc3)c(C(N)=O)c2N)C1` [Example 9, 5-amino-1-(1-cyanoazetidin-3-yl)-3-(4-phenoxyphenyl)-1H-pyrazole-4-carboxamide], the figure is 7.63; as for `N#CN1CCOCC(n2nc(-c3ccc(Oc4ccccc4)cc3)c(C(N)=O)c2N)C1` (stereo not shown) [Example 10, 5-amino-1-(4-cyano-1,4-oxazepan-6-yl)-3-(4-phenoxyphenyl)-1H-pyrazole-4-carboxamide], 7.87; as for `N#CN1CC2CC1CC2n1nc(-c2ccc(Oc3ccccc3)cc2)c(C(N)=O)c1N` (stereo not shown) [Example 11, 5-amino-1-(2-cyano-2-azabicyclo[2.2.1]hept-5-yl)-3-(4-phenoxyphenyl)-1H-pyrazole-4-carboxamide], 8.23.
Take `N#CCN1CC2CC1CC2n1nc(-c2ccc(Oc3ccccc3)cc2)c(C(N)=O)c1N` (stereo not shown) [Example 12, 5-amino-1-[2-(cyanomethyl)-2-azabicyclo[2.2.1]hept-5-yl]-3-(4-phenoxyphenyl)-1H-pyrazole-4-carboxamide]: the pIC50 was 7.27.
As for `N#CN1CCCC(n2nc(-c3ccc(Oc4ccc(Cl)cc4)cc3)c(C(N)=O)c2N)C1` (stereo not shown) [Example 13, 5-amino-3-[4-(4-chlorophenoxy)phenyl]-1-(1-cyanopiperidin-3-yl)-1H-pyrazole-4-carboxamide], the figure is 8.59; as for `Cc1ccc(Oc2ccc(-c3nn(C4CCCN(C#N)C4)c(N)c3C(N)=O)cc2)cc1C` (stereo not shown) [Example 16, 5-amino-1-(1-cyanopiperidin-3-yl)-3-[4-(3,4-dimethylphenoxy)phenyl]-1H-pyrazole-4-carboxamide], 8.89; as for `Cc1ccc(Oc2ccc(-c3nn(C4CCCN(C#N)C4)c(N)c3C(N)=O)cc2)c(C)c1` (stereo not shown) [Example 23, 5-amino-1-(1-cyanopiperidin-3-yl)-3-[4-(2,4-dimethylphenoxy)phenyl]-1H-pyrazole-4-carboxamide], 8.04.
As to `CC(C)c1ccc(Oc2ccc(-c3nn(C4CCCN(C#N)C4)c(N)c3C(N)=O)cc2)cc1` (stereo not shown) [Example 24, 5-amino-1-(1-cyanopiperidin-3-yl)-3-[4-(4-isopropylphenoxy)phenyl]-1H-pyrazole-4-carboxamide], the pIC50 is 8.30.
In the case of `N#CN1CCCC(n2nc(-c3ccc(Oc4ccc(F)cc4F)cc3)c(C(N)=O)c2N)C1` (stereo not shown) [Example 25, 5-amino-1-(1-cyanopiperidin-3-yl)-3-[4-(2,4-difluorophenoxy)phenyl]-1H-pyrazole-4-carboxamide] it was 8.66; in that of `Cc1cc(Oc2ccc(-c3nn(C4CCCN(C#N)C4)c(N)c3C(N)=O)cc2)ccc1F` (stereo not shown) [Example 31, 5-amino-1-(1-cyanopiperidin-3-yl)-3-[4-(4-fluoro-3-methylphenoxy)phenyl]-1H-pyrazole-4-carboxamide], 8.55; in that of `Cc1cc(F)ccc1Oc1ccc(-c2nn(C3CCCN(C#N)C3)c(N)c2C(N)=O)cc1` (stereo not shown) [Example 32, 5-amino-1-(1-cyanopiperidin-3-yl)-3-[4-(4-fluoro-2-methylphenoxy)phenyl]-1H-pyrazole-4-carboxamide], 8.39.
As for `N#CN1CCCC(n2nc(-c3ccc(Oc4ccc(F)cc4Cl)cc3)c(C(N)=O)c2N)C1` (stereo not shown) [Example 35, 5-amino-3-[4-(2-chloro-4-fluorophenoxy)phenyl]-1-(1-cyanopiperidin-3-yl)-1H-pyrazole-4-carboxamide], the figure is 8.77; as for `Cc1ccc(Oc2ccc(-c3nn(C4CCCN(C#N)C4)c(N)c3C(N)=O)cc2)c(Cl)c1` (stereo not shown) [Example 38, 5-amino-3-[4-(2-chloro-4-methylphenoxy)phenyl]-1-(1-cyanopiperidin-3-yl)-1H-pyrazole-4-carboxamide], 8.60; as for `Cc1ccc(Oc2ccc(-c3nn(C4CCCN(C#N)C4)c(N)c3C(N)=O)cc2)c(F)c1` (stereo not shown) [Example 39, 5-amino-1-(1-cyanopiperidin-3-yl)-3-[4-(2-fluoro-4-methylphenoxy)phenyl]-1H-pyrazole-4-carboxamide], 8.96.
As to `Cc1cc(Oc2ccc(-c3nn(C4CCCN(C#N)C4)c(N)c3C(N)=O)cc2)ccc1Cl` (stereo not shown) [Example 40, 5-amino-3-[4-(4-chloro-3-methylphenoxy)phenyl]-1-(1-cyanopiperidin-3-yl)-1H-pyrazole-4-carboxamide], the negative logarithm of the IC50 (pIC50) was 8.82.
`N#CN1CCCC(n2nc(-c3ccc(Oc4ccc(F)cc4)cc3)c(C(N)=O)c2N)C1` (stereo not shown) [Example 41, 5-amino-1-(1-cyanopiperidin-3-yl)-3-[4-(4-fluorophenoxy)phenyl]-1H-pyrazole-4-carboxamide]: the pIC50 was 8.20.
As for `Cc1ccc(Oc2ccc(-c3nn(C4CCCN(C#N)C4)c(N)c3C(N)=O)cc2)cc1` (stereo not shown) [Example 42, 5-amino-1-(1-cyanopiperidin-3-yl)-3-[4-(4-methylphenoxy)phenyl]-1H-pyrazole-4-carboxamide], the figure is 8.92.

The values above are taken from patent US10266513B2 (Pfizer Inc., priority 2012, dated 2019).
